# System: Echinochloa crus-galli (ECHCG)
# Test: Pre-emergence herbicidal activity, glasshouse pot test
# Type: in vivo
# Details: Echinochloa crus-galli, 480 h, rate 500 g/ha, evaluated after 20 days, read-out: Pre-emergence activity, ECHCG (100=total damage to plant; 0=no damage to plant)
# How it was run: (§1)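 Pre-emergence application: sprayed one day after seeding into pots of sterilised standard soil. After 20 days' growth in a greenhouse, percent damage was scored visually, 0 meaning unharmed and 100 total damage.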
row,SMILES,pest or weed control at 500 g/ha [%]
1,"CCc1cc(C)cc(CC)c1C1=C(O)CC(CC(C)[S+]([O-])CC)CC1=O (stereo not shown) [Compound T29, 2-(2,6-diethyl-4-methylphenyl)-5-[2-(ethylsulfinyl)propyl]cyclohexane-1,3-dione]",100
2,CCc1cc(C)cc(CC)c1C1=C(O)CC(C2(SC)CCC2)CC1=O (stereo not shown) [Compound T25],100
3,CCCCCCCCCCCCCCCC(=O)OC1=C(c2c(CC)cc(C)cc2CC)C(=O)CC2(CCOCC2)C1 [Compound P45],100
4,CCc1cc(CC)c(C2=C(OC(=O)C(C)(C)C)CC3(CCOCC3)CC2=O)c(CC)c1 [Compound P49],100

# System: Setaria faberi (SETFA)
# Test: as above
# Type: in vivo
# Details: Setaria faberi, 480 h, rate 500 g/ha, evaluated after 20 days, read-out: Pre-emergence activity, SETFA (100=total damage to plant; 0=no damage to plant)
# How it was run: as §1
row,SMILES,pest or weed control at 500 g/ha [%]
1,"CCc1cc(C)cc(CC)c1C1=C(O)CC(CC(C)[S+]([O-])CC)CC1=O (stereo not shown) [Compound T29, 2-(2,6-diethyl-4-methylphenyl)-5-[2-(ethylsulfinyl)propyl]cyclohexane-1,3-dione]",100
2,CCc1cc(C)cc(CC)c1C1=C(O)CC(C2(SC)CCC2)CC1=O (stereo not shown) [Compound T25],100
3,CCCCCCCCCCCCCCCC(=O)OC1=C(c2c(CC)cc(C)cc2CC)C(=O)CC2(CCOCC2)C1 [Compound P45],100
4,CCc1cc(CC)c(C2=C(OC(=O)C(C)(C)C)CC3(CCOCC3)CC2=O)c(CC)c1 [Compound P49],100

# System: Avena fatua (AVEFA)
# Test: as above
# Type: in vivo
# Details: Avena fatua, 480 h, rate 500 g/ha, evaluated after 20 days, read-out: Pre-emergence activity, AVEFA (100=total damage to plant; 0=no damage to plant)
# How it was run: as §1
row,SMILES,pest or weed control at 500 g/ha [%]
1,"CCc1cc(C)cc(CC)c1C1=C(O)CC(CC(C)[S+]([O-])CC)CC1=O (stereo not shown) [Compound T29, 2-(2,6-diethyl-4-methylphenyl)-5-[2-(ethylsulfinyl)propyl]cyclohexane-1,3-dione]",90
2,CCc1cc(C)cc(CC)c1C1=C(O)CC(C2(SC)CCC2)CC1=O (stereo not shown) [Compound T25],100
3,CCCCCCCCCCCCCCCC(=O)OC1=C(c2c(CC)cc(C)cc2CC)C(=O)CC2(CCOCC2)C1 [Compound P45],100
4,CCc1cc(CC)c(C2=C(OC(=O)C(C)(C)C)CC3(CCOCC3)CC2=O)c(CC)c1 [Compound P49],60

# System: Alopecurus myosuroides (ALOMY)
# Test: as above
# Type: in vivo
# Details: Alopecurus myosuroides, 480 h, rate 500 g/ha, evaluated after 20 days, read-out: Pre-emergence activity, ALOMY (100=total damage to plant; 0=no damage to plant)
# How it was run: as §1
row,SMILES,pest or weed control at 500 g/ha [%]
1,"CCc1cc(C)cc(CC)c1C1=C(O)CC(CC(C)[S+]([O-])CC)CC1=O (stereo not shown) [Compound T29, 2-(2,6-diethyl-4-methylphenyl)-5-[2-(ethylsulfinyl)propyl]cyclohexane-1,3-dione]",100
2,CCc1cc(C)cc(CC)c1C1=C(O)CC(C2(SC)CCC2)CC1=O (stereo not shown) [Compound T25],100
3,CCCCCCCCCCCCCCCC(=O)OC1=C(c2c(CC)cc(C)cc2CC)C(=O)CC2(CCOCC2)C1 [Compound P45],80
4,CCc1cc(CC)c(C2=C(OC(=O)C(C)(C)C)CC3(CCOCC3)CC2=O)c(CC)c1 [Compound P49],100

# System: Lolium perenne (LOLPE)
# Test: as above
# Type: in vivo
# Details: Lolium perenne, 480 h, rate 500 g/ha, evaluated after 20 days, read-out: Pre-emergence activity, LOLPE (100=total damage to plant; 0=no damage to plant)
# How it was run: as §1
row,SMILES,pest or weed control at 500 g/ha [%]
1,"CCc1cc(C)cc(CC)c1C1=C(O)CC(CC(C)[S+]([O-])CC)CC1=O (stereo not shown) [Compound T29, 2-(2,6-diethyl-4-methylphenyl)-5-[2-(ethylsulfinyl)propyl]cyclohexane-1,3-dione]",100
2,CCc1cc(C)cc(CC)c1C1=C(O)CC(C2(SC)CCC2)CC1=O (stereo not shown) [Compound T25],100
3,CCCCCCCCCCCCCCCC(=O)OC1=C(c2c(CC)cc(C)cc2CC)C(=O)CC2(CCOCC2)C1 [Compound P45],100
4,CCc1cc(CC)c(C2=C(OC(=O)C(C)(C)C)CC3(CCOCC3)CC2=O)c(CC)c1 [Compound P49],100

# System: Digitaria sanguinalis (DIGSA)
# Test: as above
# Type: in vivo
# Details: Digitaria sanguinalis, 480 h, rate 500 g/ha, evaluated after 20 days, read-out: Pre-emergence activity, DIGSA (100=total damage to plant; 0=no damage to plant)
# How it was run: as §1
row,SMILES,pest or weed control at 500 g/ha [%]
1,"CCc1cc(C)cc(CC)c1C1=C(O)CC(CC(C)[S+]([O-])CC)CC1=O (stereo not shown) [Compound T29, 2-(2,6-diethyl-4-methylphenyl)-5-[2-(ethylsulfinyl)propyl]cyclohexane-1,3-dione]",100
2,CCc1cc(C)cc(CC)c1C1=C(O)CC(C2(SC)CCC2)CC1=O (stereo not shown) [Compound T25],100
3,CCCCCCCCCCCCCCCC(=O)OC1=C(c2c(CC)cc(C)cc2CC)C(=O)CC2(CCOCC2)C1 [Compound P45],100
4,CCc1cc(CC)c(C2=C(OC(=O)C(C)(C)C)CC3(CCOCC3)CC2=O)c(CC)c1 [Compound P49],100

# System: Echinochloa crus-galli (ECHCG)
# Test: Post-emergence herbicidal activity, glasshouse pot test
# Type: in vivo
# Details: Echinochloa crus-galli, rate 125 g/ha, evaluated after 14 or 15 days, read-out: Post-emergence activity, ECHCG (100=total damage to plant; 0=no damage to plant)
# How it was run: (§2)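 Post-emergence: plants sown in sterilised standard soil, grown 10 days in glasshouse, then sprayed with aqueous solution of active ingredient formulated in acetone with Emulsogen EL, N-methylpyrrolidone, dipropylene glycol monomethyl ether and X-77. Evaluated 14 or 15 days later; scored 0 (no damage) to 100 (total damage).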
row,SMILES,pest or weed control at 125 g/ha [%]
1,CCCCCCCCCCCCCCCC(=O)OC1=C(c2c(CC)cc(C)cc2CC)C(=O)CC2(CCOCC2)C1 [Compound P45],10

# Same assay, conditions: Echinochloa crus-galli, rate 500 g/ha, evaluated after 14 or 15 days, read-out: Post-emergence activity, ECHCG (100=total damage to plant; 0=no damage to plant)
row,SMILES,pest or weed control at 500 g/ha [%]
1,"CCc1cc(C)cc(CC)c1C1=C(O)CC(CC(C)[S+]([O-])CC)CC1=O (stereo not shown) [Compound T29, 2-(2,6-diethyl-4-methylphenyl)-5-[2-(ethylsulfinyl)propyl]cyclohexane-1,3-dione]",100
2,CCc1cc(C)cc(CC)c1C1=C(O)CC(C2(SC)CCC2)CC1=O (stereo not shown) [Compound T25],80
3,CCc1cc(CC)c(C2=C(OC(=O)C(C)(C)C)CC3(CCOCC3)CC2=O)c(CC)c1 [Compound P49],90

# System: Setaria faberi (SETFA)
# Test: as above
# Type: in vivo
# Details: Setaria faberi, rate 125 g/ha, evaluated after 14 or 15 days, read-out: Post-emergence activity, SETFA (100=total damage to plant; 0=no damage to plant)
# How it was run: as §2
row,SMILES,pest or weed control at 125 g/ha [%]
1,CCCCCCCCCCCCCCCC(=O)OC1=C(c2c(CC)cc(C)cc2CC)C(=O)CC2(CCOCC2)C1 [Compound P45],10

# Same assay, conditions: Setaria faberi, rate 500 g/ha, evaluated after 14 or 15 days, read-out: Post-emergence activity, SETFA (100=total damage to plant; 0=no damage to plant)
row,SMILES,pest or weed control at 500 g/ha [%]
1,"CCc1cc(C)cc(CC)c1C1=C(O)CC(CC(C)[S+]([O-])CC)CC1=O (stereo not shown) [Compound T29, 2-(2,6-diethyl-4-methylphenyl)-5-[2-(ethylsulfinyl)propyl]cyclohexane-1,3-dione]",90
2,CCc1cc(C)cc(CC)c1C1=C(O)CC(C2(SC)CCC2)CC1=O (stereo not shown) [Compound T25],100
3,CCc1cc(CC)c(C2=C(OC(=O)C(C)(C)C)CC3(CCOCC3)CC2=O)c(CC)c1 [Compound P49],80

# System: Avena fatua (AVEFA)
# Test: as above
# Type: in vivo
# Details: Avena fatua, rate 125 g/ha, evaluated after 14 or 15 days, read-out: Post-emergence activity, AVEFA (100=total damage to plant; 0=no damage to plant)
# How it was run: as §2
row,SMILES,pest or weed control at 125 g/ha [%]
1,CCCCCCCCCCCCCCCC(=O)OC1=C(c2c(CC)cc(C)cc2CC)C(=O)CC2(CCOCC2)C1 [Compound P45],60

# Same assay, conditions: Avena fatua, rate 500 g/ha, evaluated after 14 or 15 days, read-out: Post-emergence activity, AVEFA (100=total damage to plant; 0=no damage to plant)
row,SMILES,pest or weed control at 500 g/ha [%]
1,"CCc1cc(C)cc(CC)c1C1=C(O)CC(CC(C)[S+]([O-])CC)CC1=O (stereo not shown) [Compound T29, 2-(2,6-diethyl-4-methylphenyl)-5-[2-(ethylsulfinyl)propyl]cyclohexane-1,3-dione]",100
2,CCc1cc(C)cc(CC)c1C1=C(O)CC(C2(SC)CCC2)CC1=O (stereo not shown) [Compound T25],100
3,CCc1cc(CC)c(C2=C(OC(=O)C(C)(C)C)CC3(CCOCC3)CC2=O)c(CC)c1 [Compound P49],10

# System: Alopecurus myosuroides (ALOMY)
# Test: as above
# Type: in vivo
# Details: Alopecurus myosuroides, rate 125 g/ha, evaluated after 14 or 15 days, read-out: Post-emergence activity, ALOMY (100=total damage to plant; 0=no damage to plant)
# How it was run: as §2
row,SMILES,pest or weed control at 125 g/ha [%]
1,CCCCCCCCCCCCCCCC(=O)OC1=C(c2c(CC)cc(C)cc2CC)C(=O)CC2(CCOCC2)C1 [Compound P45],30

# Same assay, conditions: Alopecurus myosuroides, rate 500 g/ha, evaluated after 14 or 15 days, read-out: Post-emergence activity, ALOMY (100=total damage to plant; 0=no damage to plant)
row,SMILES,pest or weed control at 500 g/ha [%]
1,"CCc1cc(C)cc(CC)c1C1=C(O)CC(CC(C)[S+]([O-])CC)CC1=O (stereo not shown) [Compound T29, 2-(2,6-diethyl-4-methylphenyl)-5-[2-(ethylsulfinyl)propyl]cyclohexane-1,3-dione]",90
2,CCc1cc(C)cc(CC)c1C1=C(O)CC(C2(SC)CCC2)CC1=O (stereo not shown) [Compound T25],100
3,CCc1cc(CC)c(C2=C(OC(=O)C(C)(C)C)CC3(CCOCC3)CC2=O)c(CC)c1 [Compound P49],60

# System: Lolium perenne (LOLPE)
# Test: as above
# Type: in vivo
# Details: Lolium perenne, rate 125 g/ha, evaluated after 14 or 15 days, read-out: Post-emergence activity, LOLPE (100=total damage to plant; 0=no damage to plant)
# How it was run: as §2
row,SMILES,pest or weed control at 125 g/ha [%]
1,CCCCCCCCCCCCCCCC(=O)OC1=C(c2c(CC)cc(C)cc2CC)C(=O)CC2(CCOCC2)C1 [Compound P45],0

# Same assay, conditions: Lolium perenne, rate 500 g/ha, evaluated after 14 or 15 days, read-out: Post-emergence activity, LOLPE (100=total damage to plant; 0=no damage to plant)
row,SMILES,pest or weed control at 500 g/ha [%]
1,"CCc1cc(C)cc(CC)c1C1=C(O)CC(CC(C)[S+]([O-])CC)CC1=O (stereo not shown) [Compound T29, 2-(2,6-diethyl-4-methylphenyl)-5-[2-(ethylsulfinyl)propyl]cyclohexane-1,3-dione]",90
2,CCc1cc(C)cc(CC)c1C1=C(O)CC(C2(SC)CCC2)CC1=O (stereo not shown) [Compound T25],90
3,CCc1cc(CC)c(C2=C(OC(=O)C(C)(C)C)CC3(CCOCC3)CC2=O)c(CC)c1 [Compound P49],50

# System: Digitaria sanguinalis (DIGSA)
# Test: as above
# Type: in vivo
# Details: Digitaria sanguinalis, rate 125 g/ha, evaluated after 14 or 15 days, read-out: Post-emergence activity, DIGSA (100=total damage to plant; 0=no damage to plant)
# How it was run: as §2
row,SMILES,pest or weed control at 125 g/ha [%]
1,CCCCCCCCCCCCCCCC(=O)OC1=C(c2c(CC)cc(C)cc2CC)C(=O)CC2(CCOCC2)C1 [Compound P45],20

# Same assay, conditions: Digitaria sanguinalis, rate 500 g/ha, evaluated after 14 or 15 days, read-out: Post-emergence activity, DIGSA (100=total damage to plant; 0=no damage to plant)
row,SMILES,pest or weed control at 500 g/ha [%]
1,"CCc1cc(C)cc(CC)c1C1=C(O)CC(CC(C)[S+]([O-])CC)CC1=O (stereo not shown) [Compound T29, 2-(2,6-diethyl-4-methylphenyl)-5-[2-(ethylsulfinyl)propyl]cyclohexane-1,3-dione]",100
2,CCc1cc(C)cc(CC)c1C1=C(O)CC(C2(SC)CCC2)CC1=O (stereo not shown) [Compound T25],100
3,CCc1cc(CC)c(C2=C(OC(=O)C(C)(C)C)CC3(CCOCC3)CC2=O)c(CC)c1 [Compound P49],90

# System: not given
# Test: not given
# Details: not given
row,melting point [°C],SMILES
1,58 to 61,"CCc1cc(C)cc(CC)c1C1=C(O)CC(CC(C)[S+]([O-])CC)CC1=O (stereo not shown) [Compound T29, 2-(2,6-diethyl-4-methylphenyl)-5-[2-(ethylsulfinyl)propyl]cyclohexane-1,3-dione]"
